Experiments:
C57Bl/6J mice [1] = assay: Lethality; type: in vivo; conditions: 2 hr observation; for lethal effects: 20-160 mg/kg IP (MDPV up to 140 mg/kg)
C57Bl/6J mice [2] = assay: Rectal; type: in vivo; conditions: for maximal decrease in temperature, females / maximal decrease in temperature, males / effect on body temperature, females / effect on body temperature, males / effect on body temperature: single IP injection; for effect on body temperature, females / effect on body temperature, males / effect on body temperature: ambient 22-23 °C; for effect on body temperature: males and females
[3] = lower doses (<10 mg/kg IP); ref not given; cited from earlier work
C57Bl/6J mice [4] = assay: Organ weights normalized to body weight; type: in vivo; conditions: 20-160 mg/kg IP, normalized according to body weight
C57Bl/6J mice [5] = assay: Histological analysis of organs by hematoxylin-eosin staining; type: in vivo; conditions: at lethal doses
[6] = ref Miner et al., 2017, cited from earlier work; for decrease in temperature after the first injection: first injection of a binge regimen
[7] = ref Piao et al., 2015; cited from earlier work

| Structure (SMILES) | lethal effects (C57Bl/6J mice [1]) | maximal decrease in temperature, females (C57Bl/6J mice [2]; females) | time post injection with significant hypothermia vs baseline (C57Bl/6J mice [2]; males, 20 mg/kg IP) | time post injection with significant hypothermia vs baseline (C57Bl/6J mice [2]; males, 80 mg/kg IP) | maximal decrease in temperature, males (C57Bl/6J mice [2]; males) | effect on body temperature, females (C57Bl/6J mice [2]; females) | effect on body temperature, males (C57Bl/6J mice [2]; males) | normalized heart weight (C57Bl/6J mice [4]) | normalized liver weight (C57Bl/6J mice [4]) | liver histology (hematoxylin-eosin) (C57Bl/6J mice [5]) | other results |
| --- | --- | --- | --- | --- | --- | --- | --- | --- | --- | --- | --- |
| C[C@H](N)C(=O)c1ccccc1 [CAT, cathinone] | no lethal effects at any dose | ≈ 7 °C | 20 min | 20 min | ≈ 5 °C |  |  |  |  |  | time post injection with significant hypothermia vs baseline (C57Bl/6J mice [2]; females, 40 mg/kg IP): lasted the entire duration of the experiment; time post injection with significant hypothermia vs baseline (C57Bl/6J mice [2]; males, 40 mg/kg IP): 20 min; hyperthermia [3]: ≈ 1 °C |
| CN[C@@H](C)Cc1ccccc1 [MA, methamphetamine] |  |  |  |  |  | no significant differences in temperature post-injection | increased body temperature | increased normalized heart weight in a dose dependent manner | significantly increased normalized liver weight | minor changes in cell morphology in the liver | timepoint of return of temperature to baseline (C57Bl/6J mice [2]; males, 40 mg/kg IP): ≤ 100 min |
| CNC(C)C(=O)c1ccccc1 (stereo not shown) [MCAT, methcathinone] | this occurred at the highest dose and only in one subject | ≈ 7 °C | 20 min | failed to show significance | ≈ 3 °C |  |  |  |  |  | time of peak hypothermic effect after injection (C57Bl/6J mice [2]; both males and females): 60 min; effect on body temperature (C57Bl/6J mice [2]): pronounced hypothermic effects; time post injection with significant hypothermia vs baseline (C57Bl/6J mice [2]; males, 120 mg/kg IP): did not identify an significant effects; time post injection with significant hypothermia vs baseline (C57Bl/6J mice [2]; males, 160 mg/kg IP): 60 min; hyperthermia [3]: ≈ 1 °C |
| CNC(C)Cc1ccc2c(c1)OCO2 (stereo not shown) [MDMA, 3,4-methylenedioxymethamphetamine] |  |  |  |  |  | hypothermic effects | not significant at any dose | increased normalized heart weight in a dose dependent manner | did not significantly affect liver weight | minor changes in cell morphology in the liver | LD50 as base (C57Bl/6J mice [1]; single IP injection, males and females pooled): 100.92 mg/kg; decrease in temperature after the first injection [6]: 3 °C |
| CCCC(C(=O)c1ccc2c(c1)OCO2)N1CCCC1 (stereo not shown) [MDPV, methylenedioxypyrovalerone] | no lethal effects at any dose | ≈ 2 °C |  | did not identify any significant differences | ≈ 2 °C |  |  |  |  |  | time post injection with significant hypothermia vs baseline (C57Bl/6J mice [2]; females, 80 mg/kg IP): 20 min; time post injection with significant hypothermia vs baseline (C57Bl/6J mice [2]; females, 100 mg/kg IP): 20 min; time post injection with significant hypothermia vs baseline (C57Bl/6J mice [2]; females, 120 mg/kg IP): 20 min; effect on body temperature (C57Bl/6J mice [2]): significant hypothermic effects in both males and females; time post injection with significant hypothermia vs baseline (C57Bl/6J mice [2]; males, 140 mg/kg IP): 20 min; effects on temperature ([6]; 1 mg/kg IP): did not find effects |
| CNC(C)C(=O)c1ccc(C)cc1 (stereo not shown) [MMC, 4-methyl-methcathinone] |  | ≈ 6 °C | 20 min |  | ≈ 4 °C | profound hypothermic effects | greatest temperature decreases in males compared to the five other drugs | increased normalized heart weight in a dose dependent manner | significantly increased normalized liver weight | minor changes in cell morphology in the liver | time post injection with significant hypothermia vs baseline (C57Bl/6J mice [2]; males, 120 mg/kg IP): 20 min |
| CNC(C)C(=O)c1ccc2c(c1)OCO2 (stereo not shown) [methylone] |  |  |  |  |  |  |  |  |  |  | decrease in temperature after the first injection [6]: 4 °C; LD50 compared with MA or MDMA [7]: slightly lower than that of MA or MDMA |

Source: article PMC7195606 (Pharmacology, biochemistry, and behavior, 2020)
